Here are results for four compounds from patent US20150296780A1, “MOLLUSCICIDE” (Syngenta Participations AG, priority 2008, published 2015).

Type in all cases: in vivo
Series [1] relates to Deroceras reticulatum. Nature of the series: Forced ingestion study on D. reticulatum (Example 1). The note with it: for Number of slugs Affected / Number of slugs Dead / Number of slugs Healthy: of 20 slugs. As for the experimental part: Forced ingestion studies were setup using the Field Slug, Deroceras reticulatum. A formulation containing the strobilurin azoxystrobin was injected directly into the gut of the slugs. Details of the formulation (Dynasty® 100FS) are: […]
Slugs were field-collected, and starved for 48 hours prior to forced ingestion studies. Individual slugs were weighed and anaesthetized using carbon dioxide for 10 to 20 minutes. Test solutions were incorporated into an agar jelly (1.0% w/v) to reduce the risk of regurgitation. For each slug, ten ul aliquots of warm agar mix were injected into the buccal cavity using a fine glass micro-syringe and gently eased into the slug crop. Individual slugs were then placed into labelled Petri dishes lined with moist, unbleached, absorbent paper. For each treatment, 20 slugs were injected. An untreated control of warm agar gel was injected for comparison purposes.
Treated slugs were maintained under controlled environmental conditions (12 hour photoperiod, 15° C., 90% relative humidity), and slug health assessments recorded over the three subsequent days. Slug health was classified into one of the following categories: • Healthy: showing no symptoms • Affected: showing some symptoms of poisoning, excessive mucus production/deformity • Dead

The subject of series [2] is Deroceras reticulatum. Nature of the series: Forced ingestion trial of Deroceras reticulatum using various strobilurin compounds (Example 2). The note with it: for slug mortality (in words): 0.5 mg a.i./slug. As for the experimental part:
(§1) Adult D. reticulatum were field-collected from an irrigated plot of mixed herbage and maintained in plastic boxes lined with moist, unbleached, absorbent paper and under controlled environmental conditions (12 hour photoperiod, 10° C., 90% RH). Slugs were fed ad. lib. on wheat grain and a mixture of fresh foliage for a period of up to, but not exceeding, one week prior to testing. Slugs were then starved for a period of 48 h before treatment.
(§2) Individual slugs were weighed and anaesthetized using CO2 for a period of 10-20 minutes. Test solutions were incorporated into a warm agar jelly (1.0% w/v) to reduce the risk of regurgitation. Twenty μl aliquots of warm agar mix was then injected into the buccal cavity of a single slug using a fine glass micro-syringe and gently eased into the slug crop. Individual slugs were then placed into labelled Petri dishes lined with moist, unbleached, absorbent paper. Following application of treatments, slugs were maintained under controlled environmental conditions (12 hr photoperiod, 10° C., 90% RH), and slug health recorded over the subsequent three days. Slug health was classified into one of four categories: • Healthy (showing no symptoms) • Affected (showing some symptoms of poisoning, excessive mucus production/deformity) • Moribund (severely affected/paralysed, unable to move in response to gentle prodding) • Dead
For each treatment, 20 slugs were injected. […] The results are shown in Table 3, presented as a percentage of the total number of slugs tested for each treatment.

For series [3], the system named is Arion distinctus. Nature of the series: Forced ingestion trial of azoxystrobin (FS formulation) against various slug species (Example 3). The conditions noted are these: 100FS formulation. As for the experimental part:
as §1, §2
(§3) The methods used in this trial were the same as those described in Example 2, except that the following slug species were collected and tested: Deroceras reticulatum, Anion distinctus, Anion fasciatus and Tandonia budapestensis
(§4) For each treatment, 20 slugs were injected. […] The results are shown in Table 5, presented as a percentage of the total number of slugs tested for each treatment.

For series [4], the system named is Arion fasciatus. The series is described as above. The note with it: 100FS formulation. As to the method: as §1, §2, §3, §4
Series [5] deals with Tandonia budapestensis. Described as above. The note with it: 100FS formulation. As to the method:
as §1, §2, §3, §4

Series [6] deals with Arion distinctus. The series can be described thus: Forced ingestion trial of azoxystrobin (SC formulation) against various slug species (Example 4). The conditions noted are these: 250SC formulation. As to the method: as §1, §2, §3
(§5) For each treatment, at least 20 slugs were injected. […] The results are shown in Table 7, presented as a percentage of the total number of slugs tested for each treatment.

Series [7] deals with Arion fasciatus. The description is as above. The note with it: 250SC formulation. As for the experimental part:
as §1, §2, §3, §5

The subject of series [8] is Deroceras reticulatum. Described as above. The note with it: 250SC formulation. As for the experimental part: as §1, §2, §3, §5
Series [9] relates to Tandonia budapestensis. The description is as above. The conditions noted are these: 250SC formulation. As to the method: as §1, §2, §3, §5
The next series concerns D. reticulatum. Nature of the series: Tests to establish potential effect of surfactants on molluscicidal activity, forced ingestion (Example 6). As for the experimental part:
as §1, §2
The methods used in this trial were the same as those described in Example 2. The treatments tested are listed in Table 10, and results are in Table 11, presented as a percentage of the total number of slugs tested for each treatment. For each treatment 20 slugs were tested. For ease of comparison, the concentrations of each treatment applied were equivalent to the amount of each component that would be applied in a treatment of Amistar® at a rate of 0.1 mg a.i./slug.

Series [10] has as its system Deroceras reticulatum. The series can be described thus: Forced ingestion trial of azoxystrobin (FS formulation) and picoxystrobin against various slug species (Example 3). As for the experimental part:
as §1
as §2, with “Dead […]” for “Dead”

Where [11] appears, read: 0.0001 mg azoxystrobin/slug, 24 hours.
Setting [12] is: 0.0001 mg azoxystrobin/slug, 48 hours.
[13] abbreviates: 0.0001 mg azoxystrobin/slug, 72 hours.
The mark [14] stands for this setting: 0.001 mg azoxystrobin/slug, 24 hours.
The mark [15] stands for this setting: 0.001 mg azoxystrobin/slug, 48 hours.
The mark [16] stands for this setting: 0.001 mg azoxystrobin/slug, 72 hours.
Where [17] appears, read: 0.01 mg azoxystrobin/slug, 24 hours.
Setting [18] is: 0.01 mg azoxystrobin/slug, 48 hours.
Setting [19] is: 0.01 mg azoxystrobin/slug, 72 hours.
Where [20] appears, read: 0.1 mg azoxystrobin/slug, 24 hours.
[21] abbreviates: 0.1 mg azoxystrobin/slug, 48 hours.
[22] abbreviates: 0.1 mg azoxystrobin/slug, 72 hours.
[23] abbreviates: 1 mg azoxystrobin/slug, 24 hours.
Where [24] appears, read: 1 mg azoxystrobin/slug, 48 hours.
Where [25] appears, read: 1 mg azoxystrobin/slug, 72 hours.
The mark [26] stands for this setting: 0.1 mg a.i./slug, 72 hours after forced ingestion.

Take `CO/C=C(/C(=O)OC)c1ccccc1Oc1cc(Oc2ccccc2C#N)ncn1` [azoxystrobin]: the “Number of slugs Affected” value with Deroceras reticulatum [1] (setting [11]) amounted to 0; in the series with Deroceras reticulatum [1] (setting [12]), 0; in the series on Deroceras reticulatum [1] (setting [13]), 0; in the series with Deroceras reticulatum [1] (setting [14]), 4; with Deroceras reticulatum [1] (setting [15]), 2; in the series with Deroceras reticulatum [1] (setting [16]), 2. The “Number of slugs Affected” value in the series on Deroceras reticulatum [1] (setting [17]) is on record as 6; in the series with Deroceras reticulatum [1] (setting [18]), 6; in the series with Deroceras reticulatum [1] (setting [19]) it was 6; in the series on Deroceras reticulatum [1] (setting [20]) it was 2; in the series with Deroceras reticulatum [1] (setting [21]), 0; in the series with Deroceras reticulatum [1] (setting [22]) it was 0. Moreover, the “Number of slugs Affected” value in the series on Deroceras reticulatum [1] (setting [23]), in the series on Deroceras reticulatum [1] (setting [24]) and in the series on Deroceras reticulatum [1] (setting [25]) was 0 in each case. For the same compound, the “Number of slugs Dead” value is recorded as 0 in the series with Deroceras reticulatum [1] (setting [11]); 0 in the series with Deroceras reticulatum [1] (setting [12]); 0 in the series with Deroceras reticulatum [1] (setting [13]); 0 in the series with Deroceras reticulatum [1] (setting [14]); 4 in the series on Deroceras reticulatum [1] (setting [15]); 4 with Deroceras reticulatum [1] (setting [16]). For the same compound, the “Number of slugs Dead” value with Deroceras reticulatum [1] (setting [17]) worked out at 2; in the series on Deroceras reticulatum [1] (setting [18]), 6; in the series with Deroceras reticulatum [1] (setting [19]), 6; in the series with Deroceras reticulatum [1] (setting [20]), 16; with Deroceras reticulatum [1] (setting [21]), 18; in the series on Deroceras reticulatum [1] (setting [22]) it was 18. Besides, the “Number of slugs Dead” value in the series on Deroceras reticulatum [1] (setting [23]), in the series with Deroceras reticulatum [1] (setting [24]) and with Deroceras reticulatum [1] (setting [25]) was 20 each time. Moreover, the “Number of slugs Healthy” value in the series on Deroceras reticulatum [1] (setting [11]) came out at 20; with Deroceras reticulatum [1] (setting [12]) it was 20; with Deroceras reticulatum [1] (setting [13]), 20; in the series with Deroceras reticulatum [1] (setting [14]) it was 16; in the series with Deroceras reticulatum [1] (setting [15]), 14; with Deroceras reticulatum [1] (setting [16]) it was 14. Further, the “Number of slugs Healthy” value in the series on Deroceras reticulatum [1] (setting [17]) worked out at 12; in the series on Deroceras reticulatum [1] (setting [18]), 8; in the series on Deroceras reticulatum [1] (setting [19]) it was 8; in the series with Deroceras reticulatum [1] (setting [20]), 2; with Deroceras reticulatum [1] (setting [21]), 2; in the series with Deroceras reticulatum [1] (setting [22]), 2. Also, the “Number of slugs Healthy” value with Deroceras reticulatum [1] (setting [23]), with Deroceras reticulatum [1] (setting [24]) and in the series with Deroceras reticulatum [1] (setting [25]) was 0 each time. For the same compound, the “activity against D. reticulatum slugs (in words)” value in the series on Deroceras reticulatum [1] (efficacy increases with concentration and with time) is listed as “active against D. reticulatum slugs”. The “mean concentration that kills 99% of the population (probit analysis)” value with Deroceras reticulatum [2] (Deroceras reticulatum, treatments 1 to 4 (Amistar 250SC)) came out at 0.068 mg a.i./slug. The “killing of slugs (in words)” value in the series with Deroceras reticulatum [2] (treatments 1 to 4) is reported as “highly effective at killing slugs”. The “efficacy against slug species (in words)” value is “effective against all three species” in the series with Arion distinctus [3] (Arion distinctus); “effective against all three species” with Arion fasciatus [4] (Arion fasciatus); “effective against all three species” in the series on Tandonia budapestensis [5] (Tandonia budapestensis); “effective against all four slug species tested” in the series with Arion distinctus [6]; “effective against all four slug species tested” in the series with Arion fasciatus [7]; “effective against all four slug species tested” in the series with Deroceras reticulatum [8]. The “efficacy against slug species (in words)” value in the series on Tandonia budapestensis [9] is listed as “effective against all four slug species tested”. For the same compound, the figures for the “concentration to kill approximately 99% of the population (probit analysis)” value in the series on Arion distinctus [3] (A. distinctus), in the series with Arion fasciatus [4] (A. fasciatus) and with Tandonia budapestensis [5] (T. budapestensis) were 0.183 mg a.i./slug, 0.904 mg a.i./slug and 0.163 mg a.i./slug, respectively. The compound also had an Affected % in the series with D. reticulatum (setting [26]) of 12.5%. Moreover, the “Dead or Moribund %” value in the series with D. reticulatum (setting [26]) worked out at 42.5%. In addition, the Healthy % in the series on D. reticulatum (setting [26]) is given as 45%. Moreover, the slug mortality in the series on D. reticulatum (azoxystrobin additionally present with surfactant/formulation (treatment 4)) was found to be 100%.
Consider `CO/N=C(/C1=NOCCO1)c1ccccc1Oc1ncnc(Oc2ccccc2Cl)c1F` [fluoxastrobin], for which, in the series with Deroceras reticulatum [2], the “slug mortality (in words)” value is “significant levels of slug mortality”.
Turning to `CO/C=C(/C(=O)OC)c1ccccc1COc1cccc(C(F)(F)F)n1` [picoxystrobin], in the series with Deroceras reticulatum [10] (Deroceras reticulatum, treatments 1 to 4 (Acanto 250SC)), the “mean concentration that kills 99% of the population (probit analysis)” value is listed as 0.198 mg a.i./slug. In the series on Deroceras reticulatum [10] (doses equivalent to 0.05 mg a.i./slug or more), the “killing of slugs (in words)” value was “highly effective at killing slugs”.
As to `CON=C(C(=O)OC)c1ccccc1CON=C(C)c1cccc(C(F)(F)F)c1` [trifloxystrobin], the “slug mortality (in words)” value with Deroceras reticulatum [2] is “significant levels of slug mortality”.
